Reference: patent US10239843B2 (CANCER RESEARCH TECHNOLOGY LIMITED, priority 2014, dated 2019)
pIC50: −log10 of the molar value. Read-outs that look alike come from different tables or passages of the source.

Legend:
PARG in HeLa cell line = assay: PARG cell assay (PAR chain immunofluorescence after MMS); type: cell-based; conditions: HeLa cells
Procedure, shortened: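 HeLa cells were dosed with compound for 1 h, then given MMS at 50 μg/mL final for a further hour. Cells were methanol-fixed, permeabilised and stained overnight at 4° C with anti-PAR monoclonal antibody. Retained nuclear PAR chains, detected by indirect immunofluorescence, indicate PARG inhibition.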

Human Full Length PARG = Human Full Length PARG (Homo sapiens (Human), UniProt Q86W56); assay: PARG enzyme assay (TR-FRET); type: biochemical
[1] = Homo sapiens, MMS 50 μg/mL, read-out: PARG Cell IC50 Geomean
[2] = read-out: PARG Biochem IC50 Geomean
[3] = MMS treatment, read-out: PARG Cell IC50
[4] = Homo sapiens, MMS treatment, read-out: PARG Cell IC50

Chain of Human Full Length PARG (Q86W56 whole entry): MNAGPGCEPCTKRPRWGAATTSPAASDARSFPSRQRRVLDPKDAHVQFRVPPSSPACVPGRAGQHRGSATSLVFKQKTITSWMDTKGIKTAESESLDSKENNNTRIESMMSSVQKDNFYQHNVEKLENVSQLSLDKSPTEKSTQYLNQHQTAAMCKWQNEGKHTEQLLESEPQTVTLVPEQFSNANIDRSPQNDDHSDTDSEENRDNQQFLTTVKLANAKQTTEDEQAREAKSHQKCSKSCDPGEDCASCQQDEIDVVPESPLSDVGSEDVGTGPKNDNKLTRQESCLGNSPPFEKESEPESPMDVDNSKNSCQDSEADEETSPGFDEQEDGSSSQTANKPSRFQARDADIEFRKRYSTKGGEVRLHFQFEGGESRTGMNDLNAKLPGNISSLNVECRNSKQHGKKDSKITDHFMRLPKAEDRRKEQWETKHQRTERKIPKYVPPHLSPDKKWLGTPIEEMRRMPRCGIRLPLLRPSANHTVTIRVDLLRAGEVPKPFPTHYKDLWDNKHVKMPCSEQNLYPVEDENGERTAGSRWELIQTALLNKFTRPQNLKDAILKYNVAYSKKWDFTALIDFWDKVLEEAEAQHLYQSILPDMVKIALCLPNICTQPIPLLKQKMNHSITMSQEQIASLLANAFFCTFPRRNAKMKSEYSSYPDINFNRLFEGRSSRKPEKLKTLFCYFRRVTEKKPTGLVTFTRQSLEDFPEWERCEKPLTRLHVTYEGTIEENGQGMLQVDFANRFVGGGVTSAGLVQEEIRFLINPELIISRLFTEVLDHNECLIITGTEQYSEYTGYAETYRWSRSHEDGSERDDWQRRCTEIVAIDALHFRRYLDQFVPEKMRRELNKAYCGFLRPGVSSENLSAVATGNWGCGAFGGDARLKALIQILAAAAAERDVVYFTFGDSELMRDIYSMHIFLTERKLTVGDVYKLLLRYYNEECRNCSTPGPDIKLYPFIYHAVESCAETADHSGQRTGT

Compound | pIC50 (PARG in HeLa cell line; [1]) | pIC50 (Human Full Length PARG; [2]) | pIC50 (PARG in HeLa cell line; [3]) | pIC50 (Human Full Length PARG; read-out: PARG Biochem IC50) | pIC50 (PARG in HeLa cell line; [4])
Cc1ncc(Cn2c(OCC3CC3)nc3ccc(S(=O)(=O)NC4(C)CC4)cc3c2=O)s1 [Example 157] | 6.86 | 6.52 |  |  | 
Cn1cc(Cn2c(=O)c3cc(S(=O)(=O)NC4(C)CC4)ccc3n(CCCOC(F)(F)F)c2=O)cn1 [Example 264] | 6.73 | 6.59 |  |  | 
Cn1cc(Cn2c(=O)c3cc(S(=O)(=O)NC4(CF)CC4)ccc3n(Cc3ncnn3C)c2=O)cn1 [Example 562, N-[1-(Fluoromethyl)cyclopropyl]-3-[(1-methylpyrazol-4-yl)methyl]-1-[(2-methyl-1,2,4-triazol-3-yl)methyl]-2,4-dioxo-quinazoline-6-sulfonamide] |  |  | 6.22 | 6.72 | 
Cc1cc(Cn2c(=O)c3cc(S(=O)(=O)NC4(C)CC4)ccc3n(CC3CN(C=O)C3)c2=O)on1 [Example 425, 1-[(1-Formylazetidin-3-yl)methyl]-N-(1-methylcyclopropyl)-3-[(3-methylisoxazol-5-yl)methyl]-2,4-dioxo-quinazoline-6-sulfonamide] |  |  |  | 6.67 | 5.11
Cc1ncc(Cn2c(=O)n(C)c(=O)c3cc(S(=O)(=O)NC4(C)CC4)ccc32)s1 [Example 126] | 6.67 | 6.62 |  |  | 
Cc1cc(Cn2c(=O)c3cc(S(=O)(=O)NC4(C)CC4)ccc3n(Cc3cc(C)no3)c2=O)on1 [Example 208] | 7.16 | 7.44 |  |  | 
CC(C)Cn1c(=O)n(Cc2cnn(C)c2)c(=O)c2cc(S(=O)(=O)NC3(C)CC3)ccc21 [Example 295] | 7.07 | 7.15 |  |  | 
Cn1cc(Cn2c(=O)c3cc(S(=O)(=O)NC4(C)CC4)ccc3n(Cc3ccc(F)cc3)c2=O)cn1 [Example 171] | 6.99 | 7.31 |  |  | 
Cn1cc(Cn2c(=O)c3cc(S(=O)(=O)NC4(CF)CC4)ccc3n(Cc3cccc(F)n3)c2=O)cn1 [Example 540, N-[1-(Fluoromethyl)cyclopropyl]-1-[(6-fluoro-2-pyridyl)methyl]-3-[(1-methylpyrazol-4-yl)methyl]-2,4-dioxo-quinazoline-6-sulfonamide] |  |  |  | 6.80 | 7.02
Cc1nnc(Cn2c(=O)c3cc(S(=O)(=O)NC4(C)CC4)ccc3n(C)c2=O)s1 [Example 500, 1-Methyl-N-(1-methylcyclopropyl)-3-[(5-methyl-1,3,4-thiadiazol-2-yl)methyl]-2,4-dioxo-quinazoline-6-sulfonamide] |  |  | 6.46 | 6.33 | 
Cc1cc(Cn2c(=O)c3cc(S(=O)(=O)NC4(CF)CC4)ccc3n(CC(F)(F)F)c2=O)on1 [Example 622, N-[1-(Fluoromethyl)cyclopropyl]-3-[(3-methylisoxazol-5-yl)methyl]-2,4-dioxo-1-(2,2,2-trifluoroethyl)quinazoline-6-sulfonamide] |  |  |  | 6.45 | 6.64
Cc1noc(C)c1Cn1c(=O)n(Cc2cnn(C)c2)c(=O)c2cc(S(=O)(=O)NC3(CF)CC3)ccc21 [Example 545, 1-[(3,5-Dimethylisoxazol-4-yl)methyl]-N-[1-(fluoromethyl)cyclopropyl]-3-[(1-methylpyrazol-4-yl)methyl]-2,4-dioxo-quinazoline-6-sulfonamide] |  |  |  | 6.84 | 6.77
Cn1cc(Cn2c(=O)c3cc(S(=O)(=O)NC4(CF)CC4)ccc3n(Cc3ncccc3F)c2=O)cn1 [Example 542, N-[1-(Fluoromethyl)cyclopropyl]-1-[(3-fluoro-2-pyridyl)methyl]-3-[(1-methylpyrazol-4-yl)methyl]-2,4-dioxo-quinazoline-6-sulfonamide] |  |  |  | 6.46 | 6.48
Cn1cc(Cn2c(=O)c3cc(S(=O)(=O)NC4(C#N)CC4)ccc3n(CC#N)c2=O)cn1 [Example 356] | 4.78 | 6.40 |  |  | 
Cn1cc(Cn2c(=O)c3cc(S(=O)(=O)NC4(CF)CC4)ccc3n(Cc3nccn3C)c2=O)cn1 [Example 565, N-[1-(Fluoromethyl)cyclopropyl]-1-[(1-methylimidazol-2-yl)methyl]-3-[(1-methylpyrazol-4-yl)methyl]-2,4-dioxo-quinazoline-6-sulfonamide] |  |  |  | 6.81 | 6.25
